Laboratory results reported in ChEMBL document CHEMBL1126699, “Structure-activity relationships in 1,4-benzodioxan-related compounds. 4. Effect of aryl and alkyl substituents at position 3 on alpha-adrenoreceptor blocking activity” (J Med Chem, 1993).

Columns and labels:
[1] = biological target: T1, Adrenergic receptor alpha-1 (Rattus norvegicus, UniProt P15823+P23944+P43140); test: Ex vivo alpha-1-adrenoceptor blocking activity by antagonism of (-)-norepinephrine -induced contractions of the epididymal portion of isolated rat vas deferens.; type: functional
T1 sequence (P15823 whole entry): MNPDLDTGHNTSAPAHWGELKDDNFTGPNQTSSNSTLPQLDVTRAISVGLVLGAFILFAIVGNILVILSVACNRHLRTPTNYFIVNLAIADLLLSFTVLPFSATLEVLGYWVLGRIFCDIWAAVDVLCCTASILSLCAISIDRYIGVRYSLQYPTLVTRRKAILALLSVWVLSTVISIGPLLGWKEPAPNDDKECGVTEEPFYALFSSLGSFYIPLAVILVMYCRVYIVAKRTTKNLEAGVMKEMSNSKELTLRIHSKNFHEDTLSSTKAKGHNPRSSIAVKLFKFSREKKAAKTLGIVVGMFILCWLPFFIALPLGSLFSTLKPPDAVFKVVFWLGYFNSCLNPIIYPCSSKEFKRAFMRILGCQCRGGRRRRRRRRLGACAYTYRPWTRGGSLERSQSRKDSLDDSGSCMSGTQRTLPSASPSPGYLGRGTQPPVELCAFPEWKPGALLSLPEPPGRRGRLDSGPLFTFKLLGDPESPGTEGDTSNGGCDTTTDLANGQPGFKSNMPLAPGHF
T1 sequence (P23944 whole entry): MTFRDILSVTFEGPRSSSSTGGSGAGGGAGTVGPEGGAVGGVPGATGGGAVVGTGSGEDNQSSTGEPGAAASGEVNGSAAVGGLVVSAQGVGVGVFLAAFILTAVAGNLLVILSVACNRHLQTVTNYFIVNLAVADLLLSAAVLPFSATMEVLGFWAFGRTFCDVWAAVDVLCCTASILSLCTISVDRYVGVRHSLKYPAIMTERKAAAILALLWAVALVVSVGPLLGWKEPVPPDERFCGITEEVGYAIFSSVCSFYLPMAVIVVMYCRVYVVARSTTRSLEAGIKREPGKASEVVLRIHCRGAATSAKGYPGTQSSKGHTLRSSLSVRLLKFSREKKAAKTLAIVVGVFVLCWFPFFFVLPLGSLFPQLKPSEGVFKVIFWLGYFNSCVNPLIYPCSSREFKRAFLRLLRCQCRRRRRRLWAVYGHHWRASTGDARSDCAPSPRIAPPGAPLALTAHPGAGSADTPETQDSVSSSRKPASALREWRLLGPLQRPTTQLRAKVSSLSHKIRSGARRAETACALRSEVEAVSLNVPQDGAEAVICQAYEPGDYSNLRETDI
T1 sequence (P43140 whole entry): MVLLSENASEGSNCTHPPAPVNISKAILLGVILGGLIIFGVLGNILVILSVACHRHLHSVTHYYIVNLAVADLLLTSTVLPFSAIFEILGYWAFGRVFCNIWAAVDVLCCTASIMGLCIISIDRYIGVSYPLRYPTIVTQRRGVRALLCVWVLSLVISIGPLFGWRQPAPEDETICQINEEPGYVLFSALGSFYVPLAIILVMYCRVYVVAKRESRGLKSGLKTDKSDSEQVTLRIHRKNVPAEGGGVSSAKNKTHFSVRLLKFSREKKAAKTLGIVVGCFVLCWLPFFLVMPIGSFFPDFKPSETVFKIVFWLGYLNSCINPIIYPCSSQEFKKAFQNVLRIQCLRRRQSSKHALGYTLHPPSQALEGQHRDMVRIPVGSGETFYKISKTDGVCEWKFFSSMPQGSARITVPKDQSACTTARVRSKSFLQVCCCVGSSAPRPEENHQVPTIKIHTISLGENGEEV

[2] = biological target: Adrenergic receptor alpha (Rattus norvegicus) (UniProt P15823+P23944+P43140+P22086+P19328+P22909); test: Selectivity ratio is the antilog of the difference between pA2 values at alpha1- and alpha2- adrenoceptors
[3] = biological target: T2, Adrenergic receptor alpha-2 (Rattus norvegicus, UniProt P22086+P19328+P22909); test: Tested for the alpha-2-adrenoceptor blocking activity by antagonism of clonidine-induced depression of the twitch responses of the field-stimulated prostatic portion of isolated rat vas deferens; inactive uM; type: functional
T2 sequence (P22086 whole entry): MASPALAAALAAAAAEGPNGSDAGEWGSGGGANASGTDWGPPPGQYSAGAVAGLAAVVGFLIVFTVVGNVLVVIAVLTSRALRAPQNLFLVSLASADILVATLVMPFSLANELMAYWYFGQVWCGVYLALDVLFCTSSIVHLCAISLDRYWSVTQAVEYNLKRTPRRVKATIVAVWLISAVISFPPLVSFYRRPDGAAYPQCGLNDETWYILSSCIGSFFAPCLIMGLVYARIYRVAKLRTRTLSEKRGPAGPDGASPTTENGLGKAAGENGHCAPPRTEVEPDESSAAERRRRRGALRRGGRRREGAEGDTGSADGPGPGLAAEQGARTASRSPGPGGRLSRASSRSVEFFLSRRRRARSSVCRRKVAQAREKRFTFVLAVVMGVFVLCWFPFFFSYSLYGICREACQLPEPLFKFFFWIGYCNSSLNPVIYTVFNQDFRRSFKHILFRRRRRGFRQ
T2 sequence (P19328 whole entry): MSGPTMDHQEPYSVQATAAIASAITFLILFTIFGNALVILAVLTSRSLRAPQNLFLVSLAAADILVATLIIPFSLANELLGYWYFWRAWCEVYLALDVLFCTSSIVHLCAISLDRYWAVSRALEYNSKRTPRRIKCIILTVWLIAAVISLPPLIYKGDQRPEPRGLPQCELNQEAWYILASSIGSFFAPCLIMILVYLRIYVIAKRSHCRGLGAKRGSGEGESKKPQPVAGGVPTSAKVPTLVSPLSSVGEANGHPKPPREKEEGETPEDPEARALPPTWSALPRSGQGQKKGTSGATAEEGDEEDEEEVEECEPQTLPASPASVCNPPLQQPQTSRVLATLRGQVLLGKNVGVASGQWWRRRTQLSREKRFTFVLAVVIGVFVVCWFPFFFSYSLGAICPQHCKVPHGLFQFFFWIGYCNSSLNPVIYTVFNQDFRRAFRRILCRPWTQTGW
T2 sequence (P22909 whole entry): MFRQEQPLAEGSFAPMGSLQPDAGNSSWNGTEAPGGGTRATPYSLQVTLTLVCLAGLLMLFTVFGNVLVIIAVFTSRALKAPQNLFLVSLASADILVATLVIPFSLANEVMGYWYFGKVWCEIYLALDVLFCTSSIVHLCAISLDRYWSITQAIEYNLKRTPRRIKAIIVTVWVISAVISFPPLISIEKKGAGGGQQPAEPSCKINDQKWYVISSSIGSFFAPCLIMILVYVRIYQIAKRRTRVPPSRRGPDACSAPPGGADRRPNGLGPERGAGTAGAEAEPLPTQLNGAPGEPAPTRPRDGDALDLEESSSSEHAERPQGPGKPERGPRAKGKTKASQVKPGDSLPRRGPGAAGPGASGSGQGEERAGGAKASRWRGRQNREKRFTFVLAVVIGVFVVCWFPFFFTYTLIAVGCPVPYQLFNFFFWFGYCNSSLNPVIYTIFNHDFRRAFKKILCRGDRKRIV

[4] = biological target: T2, Adrenergic receptor alpha-2; test: Tested for the alpha-2-adrenoceptor blocking activity by antagonism of clonidine-induced depression of the twitch responses of the field-stimulated prostatic portion of isolated rat vas deferens; type: functional, tissue-based
[5] = biological target: T2, Adrenergic receptor alpha-2; test: Tested for the alpha-2-adrenoceptor blocking activity by antagonism of clonidine-induced depression of the twitch responses of the field-stimulated prostatic portion of isolated rat vas deferens (inactive up to 30 uM); type: functional, tissue-based
[6] = biological target: T2, Adrenergic receptor alpha-2; test: Tested for the alpha-2-adrenoceptor blocking activity by antagonism of clonidine-induced depression of the twitch responses of the field-stimulated prostatic portion of isolated rat vas deferens; at concentration 30 uM; type: functional

pA2 [1] | Ratio [2] | pA2 [3] | pA2 [4] | pA2 [5] | pA2 [6] | Compound
7.23 | > 500 | < 4.52 |  |  |  | CCc1ccc([C@@H]2Oc3ccccc3O[C@@H]2CNCCOc2c(OC)cccc2OC)cc1
5.94 | 2 |  | 5.76 |  |  | COc1cccc(OC)c1OCCNC[C@H]1Oc2ccccc2O[C@H]1C(C)C
7.82 | > 2000 | < 4.52 |  |  |  | CCc1ccc([C@H]2Oc3ccccc3O[C@@H]2CNCCOc2c(OC)cccc2OC)cc1
7.94 | 30 |  | 6.46 |  |  | COc1cccc(OC)c1OCCNC[C@H]1Oc2ccccc2O[C@@H]1C
6.2 | > 50 |  |  | < 4.52 |  | COc1cccc(OC)c1OCCNC[C@H]1Oc2ccccc2O[C@H]1C1CCCCC1
8.15 | 1000 |  |  |  | 5.17 | COc1cccc(OC)c1OCCNC[C@H]1Oc2ccccc2O[C@@H]1c1ccc(Cl)cc1
8.39 | 16000 |  | 4.18 |  |  | COc1cccc(OC)c1OCCNC[C@H]1Oc2ccccc2O[C@@H]1c1ccccc1
9.26 | 740 |  | 6.39 |  |  | COc1cccc(OC)c1OCCNCC1COc2ccccc2O1 (stereo unspecified)
8.12 | 2600 |  | 4.87 |  |  | COc1cccc(OC)c1OCCNC[C@H]1Oc2ccccc2O[C@@H]1c1ccc(OC(C)=O)cc1
7.1 | 73 |  |  |  | 5.24 | COc1cccc(OC)c1OCCNC[C@H]1Oc2ccccc2O[C@H]1c1ccc(C)cc1
8.69 | 21000 |  | 4.37 |  |  | COc1cccc(OC)c1OCCNC[C@H]1Oc2ccccc2O[C@@H]1c1ccc(C)cc1
8.67 | > 14000 | < 4.52 |  |  |  | COc1ccc([C@H]2Oc3ccccc3O[C@@H]2CNCCOc2c(OC)cccc2OC)cc1
7.09 | 210 |  |  |  | 4.76 | COc1cccc(OC)c1OCCNC[C@H]1Oc2ccccc2O[C@H]1c1ccc(Cl)cc1
8.5 | 630 |  | 5.7 |  |  | COc1cccc(OC)c1OCCNC[C@H]1Oc2ccccc2O[C@H]1C
6.09 | > 40 |  |  | < 4.52 |  | COc1cccc(OC)c1OCCNC[C@H]1Oc2ccccc2O[C@@H]1C1CCCCC1
7.84 | 1000 |  |  |  | 4.82 | COc1cccc(OC)c1OCCNC[C@H]1Oc2ccccc2O[C@@H]1c1ccc(O)cc1
6.57 | 4 |  | 5.94 |  |  | COc1cccc(OC)c1OCCNC[C@H]1Oc2ccccc2O[C@@H]1C(C)C
